Data taken from patent US20120014979A1, “USE OF BCL6 INHIBITORS FOR TREATING AUTOIMMUNE DISEASES” (priority 2010, published 2012).

System: individual with symptoms indicative of lupus
Assay: Treatment of Lupus Erythematosus in an individual (Example 2)
Type: in vivo, human
Experimental: The individual is a person with symptoms including chronic fever, malaise, joint pains, myalgias, fatigue, indicative of lupus. The individual has previously been treated, largely unsuccessfully, with cyclophosphamides, corticosteroids and immunosuppressants.
The individual is treated for 1 to 60 days sequentially with BPI-1 administered at a dose of 4 mg/kg daily.

Row | Compound | results in equivalent or comparable trials with individuals exhibiting similar symptomatology (BCL6 inhibitors other than BPI, compared with BPI-1 treatment of lupus) | amelioration of lupus (severity and frequency of flares and their symptoms) (person, 4 mg/kg daily, 1 to 60 days sequentially)
1 | O=C(O)CC(C(=O)O)N1C(=O)/C(=C2/C(=O)Nc3ccc(Br)cc32)SC1=S (centres unmarked) [79-6] | Equivalent results are obtainable | 
2 | NH2-G(RRRQRRKKR)GG(RGIEHAAR)GG(DIM)G(EW)G(NEIF)G(AIA)G(FL)G-OH [BPI-1] |  | long-lasting amelioration of lupus with a reduction in the severity and frequency of flares and their symptoms
